Columns and labels:
HL-60(TB) = assay: NCI-60 anticancer screening (SRB); format: cell-based; settings: Homo sapiens, leukemia, one dose 10 μM, read-out: Growth Inhibition Percentage (GI %)
RPMI-8226 = assay: NCI-60 anticancer screening (SRB); format: cell-based; settings: Homo sapiens; RPMI-8226, leukemia; one dose 10 μM; read-out: Growth Inhibition Percentage (GI %)
A549/ATCC = assay: NCI-60 anticancer screening (SRB); format: cell-based; settings: Homo sapiens; A549/ATCC, NSC lung cancer; one dose 10 μM; read-out: Growth Inhibition Percentage (GI %)
EKVX = assay: NCI-60 anticancer screening (SRB); format: cell-based; settings: Homo sapiens, NSC lung cancer, one dose 10 μM, read-out: Growth Inhibition Percentage (GI %)
HOP-62 = assay: NCI-60 anticancer screening (SRB); format: cell-based; settings: Homo sapiens; HOP-62, NSC lung cancer; one dose 10 μM; read-out: Growth Inhibition Percentage (GI %)
NCI-H322M = assay: NCI-60 anticancer screening (SRB); format: cell-based; settings: Homo sapiens, NSC lung cancer, one dose 10 μM, read-out: Growth Inhibition Percentage (GI %)
NCI-H460 = assay: NCI-60 anticancer screening (SRB); format: cell-based; settings: Homo sapiens; NCI-H460, NSC lung cancer; one dose 10 μM; read-out: Growth Inhibition Percentage (GI %)
NCI-H522 = assay: NCI-60 anticancer screening (SRB); format: cell-based; settings: Homo sapiens; NCI-H522, NSC lung cancer; one dose 10 μM; read-out: Growth Inhibition Percentage (GI %)
HCC-2998 = assay: NCI-60 anticancer screening (SRB); format: cell-based; settings: Homo sapiens; HCC-2998, colon cancer; one dose 10 μM; read-out: Growth Inhibition Percentage (GI %)
HCT-15 = assay: NCI-60 anticancer screening (SRB); format: cell-based; settings: Homo sapiens; HCT-15, colon cancer; one dose 10 μM; read-out: Growth Inhibition Percentage (GI %)
HT29 = assay: NCI-60 anticancer screening (SRB); format: cell-based; settings: Homo sapiens, HT-29; HT29, colon cancer; one dose 10 μM; read-out: Growth Inhibition Percentage (GI %)
KM 12 = assay: NCI-60 anticancer screening (SRB); format: cell-based; settings: Homo sapiens, KM12; KM 12, colon cancer; one dose 10 μM; read-out: Growth Inhibition Percentage (GI %)
SF-268 = assay: NCI-60 anticancer screening (SRB); format: cell-based; settings: Homo sapiens; SF-268, CNS cancer; one dose 10 μM; read-out: Growth Inhibition Percentage (GI %)
SF-295 = assay: NCI-60 anticancer screening (SRB); format: cell-based; settings: Homo sapiens; SF-295, CNS cancer; one dose 10 μM; read-out: Growth Inhibition Percentage (GI %)
SF-539 = assay: NCI-60 anticancer screening (SRB); format: cell-based; settings: Homo sapiens; SF-539, CNS cancer; one dose 10 μM; read-out: Growth Inhibition Percentage (GI %)
SNB-19 = assay: NCI-60 anticancer screening (SRB); format: cell-based; settings: Homo sapiens; SNB-19, CNS cancer; one dose 10 μM; read-out: Growth Inhibition Percentage (GI %)
SNB-75 = assay: NCI-60 anticancer screening (SRB); format: cell-based; settings: Homo sapiens; SNB-75, CNS cancer; one dose 10 μM; read-out: Growth Inhibition Percentage (GI %)
M14 = assay: NCI-60 anticancer screening (SRB); format: cell-based; settings: Homo sapiens; M14, melanoma; one dose 10 μM; read-out: Growth Inhibition Percentage (GI %)
MDA-MB-435 = assay: NCI-60 anticancer screening (SRB); format: cell-based; settings: Homo sapiens; MDA-MB-435, melanoma; one dose 10 μM; read-out: Growth Inhibition Percentage (GI %)
SK-MEL-28 = assay: NCI-60 anticancer screening (SRB); format: cell-based; settings: Homo sapiens; SK-MEL-28, melanoma; one dose 10 μM; read-out: Growth Inhibition Percentage (GI %)
SK-MEL-5 = assay: NCI-60 anticancer screening (SRB); format: cell-based; settings: Homo sapiens; SK-MEL-5, melanoma; one dose 10 μM; read-out: Growth Inhibition Percentage (GI %)
UACC-62 = assay: NCI-60 anticancer screening (SRB); format: cell-based; settings: Homo sapiens; UACC-62, melanoma; one dose 10 μM; read-out: Growth Inhibition Percentage (GI %)
NCI/ADR-RES = assay: NCI-60 anticancer screening (SRB); format: cell-based; settings: Homo sapiens, ovarian cancer, one dose 10 μM, read-out: Growth Inhibition Percentage (GI %)
786-0 = assay: NCI-60 anticancer screening (SRB); format: cell-based; settings: Homo sapiens; 786-0, renal cancer; one dose 10 μM; read-out: Growth Inhibition Percentage (GI %)
CAKI-1 = assay: NCI-60 anticancer screening (SRB); format: cell-based; settings: Homo sapiens; CAKI-1, renal cancer; one dose 10 μM; read-out: Growth Inhibition Percentage (GI %)
RXF 393 = assay: NCI-60 anticancer screening (SRB); format: cell-based; settings: Homo sapiens; RXF 393, renal cancer; one dose 10 μM; read-out: Growth Inhibition Percentage (GI %)
SN 12C = assay: NCI-60 anticancer screening (SRB); format: cell-based; settings: Homo sapiens, SN12C; SN 12C, renal cancer; one dose 10 μM; read-out: Growth Inhibition Percentage (GI %)
TK-10 = assay: NCI-60 anticancer screening (SRB); format: cell-based; settings: Homo sapiens; TK-10, renal cancer; one dose 10 μM; read-out: Growth Inhibition Percentage (GI %)
DU-145 = assay: NCI-60 anticancer screening (SRB); format: cell-based; settings: Homo sapiens; DU-145, prostate cancer; one dose 10 μM; read-out: Growth Inhibition Percentage (GI %)
MDA-MB-231 = assay: NCI-60 anticancer screening (SRB); format: cell-based; settings: Homo sapiens; MDA-MB-231, breast cancer; one dose 10 μM; read-out: Growth Inhibition Percentage (GI %)
T-47D = assay: NCI-60 anticancer screening (SRB); format: cell-based; settings: Homo sapiens, T47D, breast cancer, one dose 10 μM, read-out: Growth Inhibition Percentage (GI %)
NCI 60 cancer cell lines = assay: NCI-60 anticancer screening (SRB), whole panel; format: cell-based, human; settings: mean across the NCI-60 panel; one dose 10 μM

Structure (SMILES): CCOC(=O)C1=C(N)N(c2ccccc2)C2=C(C(=O)CC(C)(C)C2)C1c1ccc(Cl)cc1 (racemic) [8c, (±)-Ethyl 2-amino-4–(4-chlorophenyl)-7,7-dimethyl-5-oxo-1-phenyl-1,4,5,6,7,8-hexahydroquinoline-3-carboxylate]
- inhibition at 10 µM (HL-60(TB)): 94%
- inhibition at 10 µM (RPMI-8226): 92%
- inhibition at 10 µM (A549/ATCC): 66%
- inhibition at 10 µM (EKVX): 72%
- inhibition at 10 µM (HOP-62): 19%
- inhibition at 10 µM (NCI-H322M): 35%
- inhibition at 10 µM (NCI-H460): 87%
- inhibition at 10 µM (NCI-H522): 62%
- inhibition at 10 µM (HCC-2998): 57%
- inhibition at 10 µM (HCT-15): 85%
- inhibition at 10 µM (HT29): 65%
- inhibition at 10 µM (KM 12): 82%
- inhibition at 10 µM (SF-268): 42%
- inhibition at 10 µM (SF-295): 79%
- inhibition at 10 µM (SF-539): 64%
- inhibition at 10 µM (SNB-19): 85%
- inhibition at 10 µM (SNB-75): 27%
- inhibition at 10 µM (M14): 72%
- inhibition at 10 µM (MDA-MB-435): 78%
- inhibition at 10 µM (SK-MEL-28): 56%
- inhibition at 10 µM (SK-MEL-5): 72%
- inhibition at 10 µM (UACC-62): 78%
- inhibition at 10 µM (NCI/ADR-RES): 74%
- inhibition at 10 µM (786-0): 33%
- inhibition at 10 µM (CAKI-1): 50%
- inhibition at 10 µM (RXF 393): < 10%
- inhibition at 10 µM (SN 12C): 46%
- inhibition at 10 µM (TK-10): 20%
- inhibition at 10 µM (DU-145): 42%
- inhibition at 10 µM (MDA-MB-231): 47%
- inhibition at 10 µM (T-47D): 70%
- GI % mean (NCI 60 cancer cell lines): 63%

Structure (SMILES): CCOC(=O)C1=C(N)N(c2ccccc2)C2=C(C(=O)CC(C)(C)C2)C1c1ccc(OC)cc1 (racemic) [8f, (±)-Ethyl2-amino-4–(4-methoxyphenyl)-7,7-dimethyl-5-oxo-1-phenyl-1,4,5,6,7,8-hexahydroquinoline-3-carboxylate]
- inhibition at 10 µM (HL-60(TB)): < 10%
- inhibition at 10 µM (RPMI-8226): 15%
- inhibition at 10 µM (A549/ATCC): < 10%
- inhibition at 10 µM (EKVX): < 10%
- inhibition at 10 µM (HOP-62): < 10%
- inhibition at 10 µM (NCI-H322M): < 10%
- inhibition at 10 µM (NCI-H460): < 10%
- inhibition at 10 µM (NCI-H522): < 10%
- inhibition at 10 µM (HCC-2998): < 10%
- inhibition at 10 µM (HCT-15): < 10%
- inhibition at 10 µM (HT29): < 10%
- inhibition at 10 µM (KM 12): < 10%
- inhibition at 10 µM (SF-268): < 10%
- inhibition at 10 µM (SF-295): < 10%
- inhibition at 10 µM (SF-539): < 10%
- inhibition at 10 µM (SNB-19): 14%
- inhibition at 10 µM (SNB-75): < 10%
- inhibition at 10 µM (M14): < 10%
- inhibition at 10 µM (MDA-MB-435): < 10%
- inhibition at 10 µM (SK-MEL-28): < 10%
- inhibition at 10 µM (SK-MEL-5): < 10%
- inhibition at 10 µM (UACC-62): < 10%
- inhibition at 10 µM (NCI/ADR-RES): < 10%
- inhibition at 10 µM (786-0): 11%
- inhibition at 10 µM (CAKI-1): 22%
- inhibition at 10 µM (RXF 393): < 10%
- inhibition at 10 µM (SN 12C): < 10%
- inhibition at 10 µM (TK-10): < 10%
- inhibition at 10 µM (DU-145): < 10%
- inhibition at 10 µM (MDA-MB-231): < 10%
- inhibition at 10 µM (T-47D): 11%
- GI % mean (NCI 60 cancer cell lines): - ((-) = GI % mean less than 10)
